The values that follow come from the supplement of paper PMC10307832.

Test in all cases: relative viability (nuclei count vs DMSO), 5 days (fraction); higher = more cells survive
Compound in experiment [1]: C1CNCCC1C2=CC(=NN2)C3=CC=NC=C3 + Cc1nc(Nc2ncc(C(=O)Nc3c(C)cccc3Cl)s2)cc(N2CCN(CCO)CC2)n1 [Dasatinib] (partner 0.075 µM)
Summed up:
(§1)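 Cells from lung cancer lines were seeded into 1536-well plates and, one day later, dosed by pin tool. Treatments were either a single drug or a fixed dose of an anchor drug with five library-drug doses (not always all listed) in √10 steps. After 5 days, nuclei were stained in a one-step fixation (final 0.05% Triton X-100, 1% formaldehyde, 1 ug/ml Hoechst) and counted on 4× images, and relative viability is the treated-to-vehicle nuclei ratio, as the median of duplicate plates.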

Compound in experiment [2]: C[C@@H](N)c1ccc(C(=O)Nc2ccnc3[nH]ccc23)cc1 + CC(=O)c1c(C)c2cnc(Nc3ccc(N4CCNCC4)cn3)nc2n(C2CCCC2)c1=O [Palbociclib] (partner 0.5 µM)
The essentials: as §1

Compound in experiment [3]: C[C@@H](N)c1ccc(C(=O)Nc2ccnc3[nH]ccc23)cc1 + CC1(C)CCC(c2ccc(Cl)cc2)=C(CN2CCN(c3ccc(C(=O)NS(=O)(=O)c4ccc(N[C@H](CCN5CCOCC5)CSc5ccccc5)c(S(=O)(=O)C(F)(F)F)c4)cc3)CC2)C1 [Navitoclax] (partner 0.5 µM)
The essentials: as §1

Compound in experiment [4]: O[C@H]1CC[C@H](Nc2ncc3nc(Nc4c(F)cc(F)cc4F)n([C@H]4CCOC4)c3n2)CC1 [Tanzisertib] + NC(=O)Nc1cc(-c2cccc(F)c2)sc1C(=O)N[C@H]1CCCNC1 [AZD7762] (partner 0.2 µM)
The essentials: as §1

In the case of 201T, the relative viability in experiment [1] (first compound 0.08 µM) was 0.62; in experiment [1] (first compound 0.8 µM) it was 0.561; in experiment [1] (first compound 2.53 µM), 0.602; in experiment [1] (first compound 8 µM), 0.602; in experiment [2] (first compound 0.04 µM), 0.367; in experiment [2] (first compound 0.1265 µM), 0.342. Besides, the relative viability in experiment [2] (first compound 0.4 µM) came out at 0.376; in experiment [2] (first compound 1.265 µM), 0.359; in experiment [2] (first compound 4 µM) it was 0.415; in experiment [3] (first compound 0.04 µM), 1.15; in experiment [3] (first compound 0.1265 µM), 1.1; in experiment [3] (first compound 0.4 µM), 1.16. Besides, the relative viability in experiment [3] (first compound 1.265 µM) came to 1.2; in experiment [3] (first compound 4 µM) it was 1.37; in experiment [4] (first compound 0.08 µM), 0.659; in experiment [4] (first compound 0.253 µM), 0.528; in experiment [4] (first compound 0.8 µM) it was 0.578; in experiment [4] (first compound 2.53 µM), 0.555. For the same cell line, the relative viability in experiment [4] (first compound 8 µM) came out at 0.524.
As for A549, the relative viability in experiment [3] (first compound 0.04 µM) amounted to 1.23; in experiment [3] (first compound 0.1265 µM), 1.31; in experiment [3] (first compound 0.4 µM), 1.18; in experiment [3] (first compound 1.265 µM) it was 1.21; in experiment [3] (first compound 4 µM), 0.714.
As to A-427, the relative viability in experiment [1] (first compound 0.08 µM) was found to be 0.639; in experiment [1] (first compound 0.8 µM), 0.751; in experiment [1] (first compound 2.53 µM), 0.731; in experiment [1] (first compound 8 µM), 0.703; in experiment [2] (first compound 0.04 µM), 0.472; in experiment [2] (first compound 0.1265 µM), 0.553. The relative viability in experiment [2] (first compound 0.4 µM) worked out at 0.388; in experiment [2] (first compound 1.265 µM), 0.432; in experiment [2] (first compound 4 µM), 0.421; in experiment [3] (first compound 0.04 µM), 1.02; in experiment [3] (first compound 0.1265 µM), 0.992; in experiment [3] (first compound 0.4 µM), 0.993. In addition, the relative viability was found to be 0.855 in experiment [3] (first compound 4 µM); 0.756 in experiment [4] (first compound 0.08 µM); 0.766 in experiment [4] (first compound 0.253 µM); 0.885 in experiment [4] (first compound 0.8 µM); 0.705 in experiment [4] (first compound 2.53 µM); 0.662 in experiment [4] (first compound 8 µM).
Consider ABC-1, for which the relative viability in experiment [1] (first compound 0.08 µM) worked out at 0.55; in experiment [1] (first compound 0.8 µM) it was 0.563; in experiment [1] (first compound 2.53 µM), 0.652; in experiment [1] (first compound 8 µM), 0.497; in experiment [2] (first compound 0.04 µM), 0.662; in experiment [2] (first compound 0.1265 µM), 0.775. The relative viability stood at 0.789 in experiment [2] (first compound 0.4 µM); 0.976 in experiment [2] (first compound 1.265 µM); 0.552 in experiment [2] (first compound 4 µM); 0.914 in experiment [4] (first compound 0.08 µM); 0.822 in experiment [4] (first compound 0.253 µM); 0.871 in experiment [4] (first compound 0.8 µM). Besides, the relative viability in experiment [4] (first compound 2.53 µM) was 0.649; in experiment [4] (first compound 8 µM) it was 0.611.
As to BEN, the relative viability in experiment [1] (first compound 0.08 µM) was determined as 0.266; in experiment [1] (first compound 0.8 µM), 0.286; in experiment [1] (first compound 2.53 µM) it was 0.339; in experiment [1] (first compound 8 µM), 0.326; in experiment [2] (first compound 0.04 µM) it was 0.483; in experiment [2] (first compound 0.1265 µM), 0.425. The relative viability was found to be 0.438 in experiment [2] (first compound 0.4 µM); 0.587 in experiment [2] (first compound 1.265 µM); 0.449 in experiment [2] (first compound 4 µM); 0.0518 in experiment [3] (first compound 0.04 µM); 0.0703 in experiment [3] (first compound 0.1265 µM); 0.0684 in experiment [3] (first compound 0.4 µM). Besides, the relative viability in experiment [3] (first compound 1.265 µM) worked out at 0.0653; in experiment [3] (first compound 4 µM), 0.122; in experiment [4] (first compound 0.08 µM), 0.622; in experiment [4] (first compound 0.253 µM), 0.8; in experiment [4] (first compound 0.8 µM) it was 0.868; in experiment [4] (first compound 2.53 µM), 0.724. Besides, in experiment [4] (first compound 8 µM), the relative viability came to 0.565.
As for CAL-12T, the relative viability in experiment [1] (first compound 0.08 µM) was 0.49; in experiment [1] (first compound 0.8 µM), 0.49; in experiment [1] (first compound 2.53 µM), 0.625; in experiment [1] (first compound 8 µM), 0.475; in experiment [2] (first compound 0.04 µM) it was 0.558; in experiment [2] (first compound 0.1265 µM), 0.438. Further, the relative viability in experiment [2] (first compound 0.4 µM) turned out to be 0.519; in experiment [2] (first compound 1.265 µM) it was 0.161; in experiment [2] (first compound 4 µM) it was 0.428; in experiment [3] (first compound 0.04 µM), 1.3; in experiment [3] (first compound 0.1265 µM) it was 1.33; in experiment [3] (first compound 0.4 µM), 1.48. The relative viability stood at 1.77 in experiment [3] (first compound 1.265 µM); 1.47 in experiment [3] (first compound 4 µM); 0.606 in experiment [4] (first compound 0.08 µM); 0.79 in experiment [4] (first compound 0.253 µM); 0.623 in experiment [4] (first compound 0.8 µM); 0.636 in experiment [4] (first compound 2.53 µM). Moreover, the relative viability in experiment [4] (first compound 8 µM) amounted to 0.647.
For the cell line COR-L23, the relative viability in experiment [1] (first compound 0.08 µM) stood at 0.532; in experiment [1] (first compound 0.8 µM), 0.417; in experiment [1] (first compound 2.53 µM), 0.518; in experiment [1] (first compound 8 µM) it was 0.469; in experiment [2] (first compound 0.04 µM), 0.231; in experiment [2] (first compound 0.1265 µM) it was 0.357. Further, the relative viability in experiment [2] (first compound 0.4 µM) was 0.305; in experiment [2] (first compound 1.265 µM), 0.235; in experiment [2] (first compound 4 µM), 0.215; in experiment [3] (first compound 0.04 µM), 1.03; in experiment [3] (first compound 0.1265 µM), 1.16; in experiment [3] (first compound 0.4 µM), 0.886. Moreover, the relative viability came to 0.766 in experiment [3] (first compound 1.265 µM) and 0.481 in experiment [3] (first compound 4 µM).
For the cell line COR-L 105, the relative viability in experiment [1] (first compound 0.08 µM) amounted to 0.332; in experiment [1] (first compound 0.8 µM), 0.364; in experiment [1] (first compound 2.53 µM), 0.382; in experiment [1] (first compound 8 µM), 0.368; in experiment [2] (first compound 0.04 µM), 0.377; in experiment [2] (first compound 0.1265 µM), 0.399. The relative viability in experiment [2] (first compound 0.4 µM) worked out at 0.424; in experiment [2] (first compound 1.265 µM), 0.348; in experiment [2] (first compound 4 µM), 0.371; in experiment [3] (first compound 0.04 µM), 0.795; in experiment [3] (first compound 0.1265 µM) it was 0.74; in experiment [3] (first compound 0.4 µM), 0.783. In addition, the relative viability in experiment [3] (first compound 1.265 µM) came to 0.769; in experiment [3] (first compound 4 µM), 0.519.
Turning to Calu-6, the relative viability in experiment [3] (first compound 0.04 µM) turned out to be 0.849; in experiment [3] (first compound 0.1265 µM), 1.02; in experiment [3] (first compound 0.4 µM), 0.855; in experiment [3] (first compound 1.265 µM), 0.836; in experiment [3] (first compound 4 µM), 0.678.
Turning to ChaGo-K-1, the relative viability was determined as 0.58 in experiment [1] (first compound 0.08 µM); 0.657 in experiment [1] (first compound 0.8 µM); 0.643 in experiment [1] (first compound 2.53 µM); 0.627 in experiment [1] (first compound 8 µM); 0.923 in experiment [2] (first compound 0.04 µM); 0.908 in experiment [2] (first compound 0.1265 µM). Also, the relative viability is 0.947 in experiment [2] (first compound 0.4 µM); 0.893 in experiment [2] (first compound 1.265 µM); 0.865 in experiment [2] (first compound 4 µM); 1.07 in experiment [3] (first compound 0.04 µM); 1.01 in experiment [3] (first compound 0.1265 µM); 1.19 in experiment [3] (first compound 0.4 µM). Also, the relative viability in experiment [3] (first compound 4 µM) was found to be 0.891; in experiment [4] (first compound 0.08 µM), 0.926; in experiment [4] (first compound 0.253 µM), 0.89; in experiment [4] (first compound 0.8 µM), 0.856; in experiment [4] (first compound 2.53 µM), 0.839; in experiment [4] (first compound 8 µM) it was 0.796.
As for EBC-1, the relative viability in experiment [3] (first compound 0.04 µM) was found to be 0.414; in experiment [3] (first compound 0.1265 µM), 0.406; in experiment [3] (first compound 0.4 µM), 0.379; in experiment [3] (first compound 1.265 µM) it was 0.377; in experiment [3] (first compound 4 µM), 0.347.
